Measurements from patent publication US20260219274A1, “POLYOL SWEETNERS AND CARDIOVASCULAR AND THROMBOTIC EVENT RISK” (THE CLEVELAND CLINIC FOUNDATION, priority 2023, published 2026).

Test system: stable subjects undergoing elective diagnostic cardiac evaluation (Validation / US cohort)
Set-up: species or system human
Conditions: in vivo
Description: Our second clinical study employed an independent non-overlapping Validation Cohort, where we employed quantitative stable isotope dilution liquid chromatography tandem mass spectrometry (LC-MS/MS) to determine xylitol levels in serum samples from 2,149 patients (non-overlapping from GeneBank at the Cleveland Clinic; clinicaltrials.gov identifier: NCT0059020).^35-36
In both, the Discovery and Validation Cohorts, Major Adverse Cardiovascular Events (MACE) were defined as death, nonfatal myocardial infarction, or nonfatal cerebrovascular accident (stroke) during follow-up. Adjudicated long term survival data were collected through medical records review and Social Security Death Index query. Cardiovascular disease (CVD) was indicated as presence of peripheral artery disease or coronary artery disease, indicated as any clinical history of myocardial infarction, coronary revascularization (including percutaneous coronary intervention, coronary artery bypass surgery), or angiographic evidence of significant stenosis (≥50%) in 1 or more major coronary arteries. Estimated glomerular filtration rate (eGFR) in both cohorts was calculated based on the recent Chronic Kidney Disease Epidemiology Collaboration 2021 CKD-EPI Creatinine equation.^37 Platelet-related hematology analyses were performed with an Advia 120 hematology analyzer (Siemens, New York, NY).^38 Use of anti-platelet agents (=1556) was defined as either aspirin or a P2Y12 agent or both. All observational studies in this example are reported in compliance with the STrengthening the Reporting of Observational studies in Epidemiology (STROBE)-Statement.^39 Information on gender of study participants of the Discovery and Validation Cohorts is reported in Table 1-3.
Stable-isotope-dilution LC-MS/MS was developed to specifically quantify xylitol in human and mouse plasma, urine and feces (fecal pellets were dissolved in water and supernatant subjected to LC-MS/MS). Accuracy and precision of the method to quantify xylitol (separated from its structural isomers arabitol and rabitol) were assessed by a standard addition method 4 of pure synthetic standard into three different plasma pools. Accuracy was 2.4-2.8%, and intra- and inter-day coefficients of variation (CVs), were 1.2-8.9% and 10.9-11.5%, respectively. Urine creatinine was similarly analyzed by stable-isotope-dilution LC-MS/MS using D3-creatinine as internal standard as previously described.^47 Erythritol was quantified by stable-isotope-dilution LC-MS/MS as previously described.^19 Details for all assays can be found in the additional methods.
Continuous variables are summarized as median (interquartile range [IQR]), and categorical variables are presented as %. […]

Row | Compound | HR [95% CI] incident event risk | HR with 95% CI | adjusted HR [95% CI] incident MACE | HR [95% CI] for incident (3 year) MACE
1 | OC[C@@H](O)[C@@H](O)CO [erythritol] | 2.64 [1.79-3.90] | 1.21 (1.12-1.31) | 1.80 [1.18-2.77] | –
2 | OC[C@@H](O)[C@H](O)[C@@H](O)CO [xylitol] | – | – | – | 2.31 [1.52-3.52]
